Assay results from patent publication US6288077A, “2,3-methano-amino acid compounds” (Adir et Compagnie, priority 1999, dated 2001).
Structures can show the parent of a compound that is named as a salt.

Columns and labels:
human plasma [1] = assay: Thrombin time (TT) in human plasma, anti-coagulant activity; format: biochemical; settings: human plasma deficient in platelets, 2 min incubation at 37° C., Prest Thrombin
Description: (§1) Anti-coagulant Activity, Measurement of Thrombin Time and Activated […] Man In order to evaluate the anti-coagulant activity of the compounds of the invention, the thrombin time (TT) and the activated cephalin time (ACT) were determined in human plasma samples. An ST4 coagulometer (Diagnostica Stago, France) was used. A lyophilised plasma, deficient in platelets (Stago), is taken up in distilled water. The TT is obtained using the reagent Prest Thrombin and the ACT using the reagent PTT Automate […]. […] The activity of an antagonist is evaluated by its capacity to prolong the TT and the ACT relative to the control. The effect of the inhibitors is expressed by the concentration in μM that doubles the coagulation time (Ctt2).

human plasma [2] = assay: Activated cephalin time (ACT) in human plasma, anti-coagulant activity; format: biochemical; settings: human plasma deficient in platelets, 2 min incubation at 37° C., PTT Automate Cephalin
Description: as §1

human thrombin = biological target: T1, human thrombin (Homo sapiens, UniProt P00734); assay: Inhibition of human thrombin (fibrin formation from purified human fibrinogen); format: biochemical; settings: human thrombin 0.7 nM, human fibrinogen 4 mM, pH 7.4, 20° C., 10 min preincubation
T1 construct: purchased Sigma
Description: Inhibition of Thrombin and of Fibrinolysis Serine Proteases […] The fibrin formed by the thrombin or by the paranitroanilide released by the action of the serine protease is measured spectrophotometrically at 405 nm after from 15 to 30 minutes' reaction at 20° C.

dog plasma [3] = assay: Anti-coagulant activity after administration per os to the dog, thrombin time (TT); format: in vivo; settings: oral
Description: (§2) Anti-coagulant Activity After Administration Per os to the Dog
(§3) Male or female dogs weighing 11-28 kg are treated by the oral route with the products of the invention (5 or 10 mg/kg). The coagulation times (TT, ACT) are determined in dog plasma samples 10 min. before and 30 min., 1 hour, 2 hours, 4 hours and 6 hours after administration of the products. The measurements of the coagulation times are carried out as described in Example 81.
(§4) Under the conditions of our experiments, the TT is of the order of 19 seconds and the ACT of the order of 18 seconds.
(§5) The Table 4 summarizes the results obtained.

dog plasma [4] = assay: Anti-coagulant activity after administration per os to the dog, activated cephalin time (ACT); format: in vivo; settings: oral
Description: as §2, §3, §4, §5

Compound	IC50 (human thrombin) [nM]	TT Ctt2 (concentration that doubles the coagulation time) (human plasma [1]) [µM]	ACT Ctt2 (concentration that doubles the coagulation time) (human plasma [2]) [µM]	TT increase (maximal; number of times by which the initial time is increased) (dog plasma [3]; 5 mg/kg) [times]	ACT increase (maximal; number of times by which the initial time is increased) (dog plasma [4]; 5 mg/kg) [times]	TT increase (maximal; number of times by which the initial time is increased) (dog plasma [3]; 10 mg/kg) [times]	ACT increase (maximal; number of times by which the initial time is increased) (dog plasma [4]; 10 mg/kg) [times]
Cl.Cl.N=C(N)c1ccc(CNC(=O)[C@]23C[C@H]2CCN3C(=O)[C@H](N)CC2CCCCC2)cc1 [Example 2, 1-[(2R)-3-Cyclohexylalanyl]-N-(4-amidinobenzyl)-(2S,3R)-2,3-methano-prolinamide dihydrochloride]	7.9	0.07	0.52	3.8	1.4	–	–
Cl.N=C(N)c1ccc(CNC(=O)[C@]23C[C@H]2CCN3C(=O)[C@@H](CC2CCCCC2)NCC(=O)O)cc1 [Example 3, 1-[N-Carboxymethyl-(2R)-3-cyclohexylalanyl]-N-(4-amidinobenzyl)-(2S,3R)-2,3-methano-prolinamide hydrochloride]	5.3	0.06	0.56	8.4	2.1	–	–
Cl.N=C(N)c1ccc(CNC(=O)[C@]23C[C@H]2CCN3C(=O)[C@@H](Cc2ccccc2)NS(=O)(=O)Cc2ccccc2)cc1 [Example 9, 1-[N-Benzylsulphonyl-(2R)-3-phenylalanyl]-N-(4-amidinobenzyl)-(2S,3R)-2,3-methano-prolinamide hydrochloride]	6	0.20	0.86	–	–	–	–
Cl.Cl.N=C(N)c1ccc(CNC(=O)[C@]23C[C@H]2CCN3C(=O)[C@H](N)C(c2ccccc2)c2ccccc2)cc1 [Example 11, 1-[(2R)-3,3-Diphenylalanyl]-N-(4-amidinobenzyl)-(2S,3R)-2,3-methano-prolinamide dihydrochloride]	4	0.06	0.59	5.6	2.3	–	–
N=C(N)c1ccc(CNC(=O)[C@]23C[C@H]2CCN3C(=O)[C@H](NCC(=O)O)C2CCCCC2)cc1 [Example 17, 1-[N-Carboxymethyl-(2R)-cyclohexylglycyl]-N-(4-amidinobenzyl)-(2S,3R)-2,3-methano-prolinamide hydrochloride]	28	0.11	0.86	16.0	3.7	–	–
Cc1nc(N)ccc1CNC(=O)[C@]12C[C@H]1CCCN2C(=O)[C@H](N)CC1CCCCC1.Cl.Cl [Example 28, 1-[(2R)-3-Cyclohexylalanyl]-N-[(6-amino-2-methyl-3-pyridyl)methyl]-(2S,3R)-2,3-methano-homoprolinamide dihydrochloride]	26	0.31	2.30	–	–	6.2	1.8
CN[C@H](CC1CCCCC1)C(=O)N1CCC[C@@H]2C[C@@]21C(=O)NCc1ccc(N)nc1C.Cl.Cl [Example 29, 1-[N-Methyl-(2R)-3-cyclohexylalanyl]-N-[(6-amino-2-methyl-3-pyridyl)methyl]-(2S,3R)-2,3-methano-homoprolinamide dihydrochloride]	44	0.46	2.80	–	–	6.2	1.7
CCCCN[C@H](CC1CCCCC1)C(=O)N1CCC[C@@H]2C[C@@]21C(=O)NCc1ccc(N)nc1C.Cl.Cl [Example 31, 1-[N-Butyl-(2R)-3-cyclohexylalanyl]-N-[(6-amino-2-methyl-3-pyridyl)methyl]-(2S,3R)-2,3-methano-homoprolinamide dihydrochloride]	5.1	0.17	1.30	–	–	–	–
Cc1nc(N)ccc1CNC(=O)[C@]12C[C@H]1CCCN2C(=O)[C@@H](CC1CCCCC1)NCC(=O)O.Cl.Cl [Example 32, 1-[N-Carboxymethyl-(2R)-3-cyclohexylalanyl]-N-[(6-amino-2-methyl-3-pyridyl)methyl]-(2S,3R)-2,3-methano-homoprolinamide dihydrochloride]	7.1	0.12	1.09	–	–	–	–
CCOC(=O)CN[C@H](CC1CCCCC1)C(=O)N1CCC[C@@H]2C[C@@]21C(=O)NCc1ccc(N)nc1C.Cl.Cl [Example 33, 1-[N-Ethoxycarbonylmethyl-(2R)-3-cyclohexylalanyl]-N-[(6-amino-2-methyl-3-pyridyl)methyl]-(2S,3R)-2,3-methano-homoprolinamide dihydrochloride]	5.1	0.11	1.10	7.1	1.5	–	–
Cc1nc(N)ccc1CNC(=O)[C@]12C[C@H]1CCCN2C(=O)[C@H](N)C(C1CCCCC1)C1CCCCC1 [Example 63, 1-[(2R)-3,3-Dicyclohexylalanyl]-N-[(6-amino-2-methyl-3-pyridyl)methyl]-(2S,3R)-2,3-methano-homoprolinamide dihydrochloride]	8.8	–	–	–	–	–	–

Stronger by IC50 (human thrombin), values ahead:

IC50 (human thrombin) [nM]	Compound	TT Ctt2 (concentration that doubles the coagulation time) (human plasma [1]) [µM]	ACT Ctt2 (concentration that doubles the coagulation time) (human plasma [2]) [µM]	TT increase (maximal; number of times by which the initial time is increased) (dog plasma [3]; 5 mg/kg) [times]	ACT increase (maximal; number of times by which the initial time is increased) (dog plasma [4]; 5 mg/kg) [times]	TT increase (maximal; number of times by which the initial time is increased) (dog plasma [3]; 10 mg/kg) [times]	ACT increase (maximal; number of times by which the initial time is increased) (dog plasma [4]; 10 mg/kg) [times]
1.2	Cl.Cl.N=C(N)c1ccc(CNC(=O)[C@]23C[C@H]2CCN3C(=O)[C@H](N)C(C2CCCCC2)C2CCCCC2)cc1 [Example 13, 1-[(2R)-3,3-Dicyclohexylalanyl]-N-(4-amidinobenzyl)-(2S,3R)-2,3-methano-prolinamide dihydrochloride]	0.18	2.30	–	–	–	–
1	Cl.N=C(N)c1ccc(CNC(=O)[C@]23C[C@H]2CCN3C(=O)[C@H](NCC(=O)O)C(C2CCCCC2)C2CCCCC2)cc1 [Example 14, 1-[N-Carboxymethyl-(2R)-3,3-dicyclohexylalanyl]-N-(4-amidinobenzyl)-(2S,3R)-2,3-methano-prolinamide hydrochloride]	0.19	2.20	–	–	–	–
1	N=C(N)c1ccc(CNC(=O)[C@]23C[C@H]2CCN3C(=O)[C@H](NS(=O)(=O)Cc2ccccc2)C2CCCCC2)cc1 [Example 16, 1-[N-Benzylsulphonyl-(2R)-cyclohexylglycyl]-N-(4-amidinobenzyl)-(2S,3R)-2,3-methano-prolinamide hydrochloride]	0.09	0.42	–	–	–	–
2.3	Cl.N=C(N)c1ccc(CNC(=O)[C@]23C[C@H]2CCCN3C(=O)[C@@H](CC2CCCCC2)NCC(=O)O)cc1 [Example 24, 1-[N-Carboxymethyl-(2R)-3-cyclohexylalanyl]-N-(4-amidinobenzyl)-(2S,3R)-2,3-methano-homoprolinamide hydrochloride]	0.03	0.58	6.7	1.2	–	–
2	CCOC(=O)CN[C@H](CC1CCCCC1)C(=O)N1CCC[C@@H]2C[C@@]21C(=O)NCc1ccc(C(=N)N)cc1.Cl.Cl [Example 25, 1-[N-Ethoxycarbonylmethyl-(2R)-3-cyclohexylalanyl]-N-(4-amidinobenzyl)-(2S,3R)-2,3-methano-homoprolinamide dihydrochloride]	0.08	0.45	–	–	–	–
1	Cl.Cl.N=C(N)c1ccc(CNC(=O)[C@]23C[C@H]2CCCN3C(=O)[C@H](N)C(c2ccccc2)c2ccccc2)cc1 [Example 61, 1-[(2R)-3,3-Diphenylalanyl]-N-(4-amidinobenzyl)-(2S,3R)-2,3-methano-homoprolinamide dihydrochloride]	0.05	0.47	14.2	2.0	–	–
